Measurements published in US20230414616A1, “LINE-1 INHIBITORS TO TREAT DISEASE” (Transposon Therapeutics, Inc., priority 2020, published 2023).

Test system: human LINE-1
Assay: Human LINE-1 retrotransposition assay (HeLa cell-based dual-luciferase reporter)
Conditions: HeLa cells, reporter plasmid pYX017, 72 h incubation, Firefly/Renilla
Procedure: Representative Compounds of the Disclosure were tested for inhibition of retrotransposition activity of human LINE-1 in HeLa cells according to the following procedure.
HeLa cervical cancer cells were cultivated at 37° C. in a humidified 5% CO2 incubator in Dulbecco's Modified Eagle's Medium (DMEM)—high glucose, with 4500 mg/L glucose, L-glutamine, sodium pyruvate and sodium bicarbonate (Sigma), supplemented with 10% of heat inactivated fetal bovine serum (Thermo Fisher).
Assays were performed using reporter plasmid pYX017 as described (Xie, et al., 2011) with several modifications. The reporter assay was performed in 96-well white optical bottom plates. HeLa cells were seeded in wells 24 h prior to transfection and compound treatment so that cells were approximately 30% confluent on the day of transfection. Different cell plating densities were tested and a density of 2×10^3 cells was determined to be optimal.
Compounds were resuspended in DMSO. Serial dilutions (1:3) were prepared in DMSO. Medium containing different concentrations of the compounds were prepared by adding 2 μl of the compound dilution to 1 ml of the culture medium. The final concentration of DMSO in the medium was 0.2%.
FuGENE® HD transfection reagent (Promega, E2311, Lot 382574 and Lot 397842) was used to transfect the plasmids into the cells. […] Different ratios of transfection reagent to DNA were tested and a ratio of 3:1 was determined to be optimal. […] A 72 h incubation time was determined to be optimal.
Luciferase reporter activity was quantified with the Dual-Luciferase® Reporter Assay System (Promega) according to manufacturer's instructions for multiwell plates except that cells were lysed directly on the multiwell plate with 30 μl of the passive lysis buffer (PLB) for 20 min at room temperature, with gentle shaking to ensure complete cell lysis.
Firefly and Renilla luciferase signals were measured using a SpectraMax i3x Multi-Mode Microplate Reader. […] Relative L1 activity is calculated as Firefly/Renilla *1000 or Firefly/Renilla *10,000. […]

Row | Compound | IC50 (HeLa, 72 h) | IC50
1 | C#C[C@]1(CO)O[C@@H](n2cc(F)c(=O)[nH]c2=O)C[C@@H]1O [Compound 15] | 830 nM | –
2 | CC[C@]1(CO)O[C@@H](n2cnc3c(O)nc(N)nc32)C[C@@H]1O [Compound 27] | 2.6 nM | –
3 | CC(C)OC(=O)[C@H](C)N[P@](=O)(CO[C@H](C)Cn1cnc2c(N)ncnc21)Oc1ccccc1 [tenofovir alafenamide, reference compound] | – | 10 nM
